Measured values taken from paper PMC7725003, “Systematically Studying the Optimal Amino Acid Distribution Patterns of the Amphiphilic Structure by Using the Ultrashort Amphiphiles” (Frontiers in Microbiology, 2020).
Where no end group is shown, it is not given here.

Tests used:
[1] = test system: MRSA 43300; type: cell-based, methicillin-resistant S. aureus; settings: 43300, 24 h
Procedure: (§1) The antimicrobial activities of the peptides were measured using a method adapted from the National Committee for Clinical Laboratory Standards (NCCLS) with some modifications ([Chou et al., 2016]). The specific procedure for these assays has been previously described. In brief, the bacterial cells were grown to a mid-logarithmic phase and diluted in MHB to an ultimate concentration of 0.5–1 × 10^6 CFU mL^–1. Subsequently, the peptides were consecutively diluted in a 0.2% BSA solution and then added to a bacterial solution in a 96-well plate at identical volumes. After incubation for 24 h at 37°C, the MICs were determined to be the lowest peptide concentration that inhibited 95% of the bacterial growth by monitoring the absorbance at 492 nm using a microplate reader. Subsequently, 50 μL of each incubation mixture was further transferred to agar plates and incubated overnight. The minimum bactericidal concentrations (MBCs) were determined as the lowest peptide concentration that killed greater than 99.9% of the bacterial cells. Every assay was reproduced more than 3 times.

[2] = test system: S. epidermidis 12228; type: cell-based, Staphylococcus epidermidis; settings: 12228, 24 h
Procedure: as §1

[3] = test system: S. pullorum 7913; type: cell-based, Salmonella pullorum; settings: 7913, 24 h
Procedure: as §1

[4] = test system: E. faecalis 29212; type: cell-based, Enterococcus faecalis; settings: 29212, 24 h
Procedure: as §1

[5] = test system: P. aeruginosa 27853; type: cell-based, Pseudomonas aeruginosa; settings: 27853, 24 h
Procedure: as §1

[6] = test system: B. subtilis 63501; type: cell-based, Bacillus subtilis; settings: 63501, 24 h
Procedure: as §1

[7] = test system: Gram-negative bacteria; settings: for GM, Gram-negative bacteria: geometric mean of MICs (Table 3); for TI, Gram-negative bacteria: therapeutic index TI = MHC/GM MIC
Procedure: (§2) The antimicrobial activity of AMPs is the most decisive index for evaluating the clinical application of antimicrobial drugs.
as §1, with “The minimum bactericidal concentrations (MBCs) were determined as the lowest peptide concentration that killed greater than 99.9% of the bacterial cells.” left out

[8] = test system: Gram-positive bacteria; settings: for GM, Gram-positive bacteria: geometric mean of MICs (Table 3); for TI, Gram-positive bacteria: therapeutic index TI = MHC/GM MIC
Procedure: as §2
as §1, with “The minimum bactericidal concentrations (MBCs) were determined as the lowest peptide concentration that killed greater than 99.9% of the bacterial cells.” left out

[9] = test system: S. aureus 25923; type: cell-based, Staphylococcus aureus; settings: 25923, 24 h
Procedure: as §1

[10] = test system: S. aureus 29213; type: cell-based, Staphylococcus aureus; settings: 29213, 24 h
Procedure: as §1

[11] = test system: S. aureus 29213; assay: Salt sensitivity assay (MIC); type: cell-based, Staphylococcus aureus; settings: for MIC, FeCl3: 4 μM FeCl3; for MIC, NH4Cl: 6 μM NH4Cl; for MIC, ZnCl2: 8 μM ZnCl2; for MIC, MgCl2: 1 mM MgCl2; for MIC, CaCl2: 2 mM CaCl2; for MIC, KCl: 4.5 mM KCl; for MIC, NaCl: 150 mM NaCl; for MIC, Control: no added salt, three independent assays
Procedure: as §1
(§3) The salt sensitivities of the peptides were determined. E. coli ATCC 25922 and S. aureus ATCC 29213 were incubated in the presence of various ultimate concentrations of physiological salts (150 mM NaCl, 4.5 mM KCl, 6 μM NH4Cl, 8 μM ZnCl2, 1 mM MgCl2, 2mM CaCl2, and 4 μM FeCl3) according to our previous protocol ([Yang et al., 2019]). These tests were performed under the MICs, and three independent assays were performed.

[12] = test system: E. coli UB1005; type: cell-based, Escherichia coli; settings: UB1005, 24 h
Procedure: as §1

[13] = test system: E. coli 25922; type: cell-based, Escherichia coli; settings: 25922, 24 h
Procedure: as §1

[14] = test system: E. coli O78; type: cell-based, Escherichia coli; settings: O78, 24 h
Procedure: as §1

[15] = test system: all of the tested bacterial strains; assay: Geometric mean of MICs, all tested bacterial strains; type: cell-based; settings: for GM, All: geometric mean of MICs across all tested strains; for TI, All: therapeutic index TI = MHC/GM MIC
Text: The antimicrobial activity of AMPs is the most decisive index for evaluating the clinical application of antimicrobial drugs. Many antimicrobial agents inhibit bacterial growth rather than kill the bacteria quickly, and long-term infections are pathogens that are not completely killed, which results in bacterial severe drug resistance. […] The geometric mean (GM) values of the MICs/MBCs of the two series across all of the tested bacterial strains are represented in Table 3, which depicts the average bacteriostatic/bactericidal level of a peptide.
as §1

[16] = test system: S. typhimurium 7731; type: cell-based, Salmonella typhimurium; settings: 7731, 24 h
Procedure: as §1

[17] = test system: S. typhimurium 14028; type: cell-based, Salmonella typhimurium; settings: 14028, 24 h
Procedure: as §1

[18] = test system: Listeria monocytogenes CGMCC 1.1075; type: cell-based; settings: CGMCC 1.1075, 24 h
Procedure: as §1

[19] = test system: E. coli ATCC 25922; assay: Salt sensitivity assay (MIC); type: cell-based, Escherichia coli; settings: for MIC, FeCl3: 4 μM FeCl3; for MIC, NH4Cl: 6 μM NH4Cl; for MIC, ZnCl2: 8 μM ZnCl2; for MIC, MgCl2: 1 mM MgCl2; for MIC, CaCl2: 2 mM CaCl2; for MIC, KCl: 4.5 mM KCl; for MIC, NaCl: 150 mM NaCl; for MIC, Control: no added salt, three independent assays
Procedure: as §1, §3

WRRWRWWRW-NH2 [W12]
41.56: TI, All [15]
29.63: TI, Gram-negative bacteria [7]
1 µM: MIC [6]
8 µM: MBC [3] | MBC [4] | MBC [5] | MBC [12] | MBC [13] | MBC [14] | MIC [16] | MBC [17]
64.00: TI, Gram-positive bacteria [8]
3.08 µM: GM, All [15]
2 µM: MIC [1] | MIC [2] | MBC [6] | MIC [9] | MIC [10] | MIC, FeCl3 [11] | MIC, NH4Cl [11] | MIC, ZnCl2 [11] | MIC, MgCl2 [11] | MIC, CaCl2 [11] | MIC, KCl [11] | MIC, Control [11] | MIC [18] | MIC, ZnCl2 [19]
32 µM: MIC, NaCl [19]
2.00 µM: GM, Gram-positive bacteria [8]
4 µM: MBC [1] | MBC [2] | MIC [3] | MIC [4] | MIC [5] | MBC [9] | MBC [10] | MIC, NaCl [11] | MIC [12] | MIC [13] | MIC [14] | MIC [17] | MBC [18] | MIC, FeCl3 [19] | MIC, NH4Cl [19] | MIC, MgCl2 [19] | MIC, KCl [19] | MIC, Control [19]
16 µM: MBC [16] | MIC, CaCl2 [19]
4.32 µM: GM, Gram-negative bacteria [7]

WWWRRRRWW-NH2 [W4]
2.69 µM: GM, Gram-positive bacteria [8]
32 µM: MBC [18]
30.62: TI, All [15]
47.58: TI, Gram-positive bacteria [8]
4.18 µM: GM, All [15]
8 µM: MBC [3] | MBC [4] | MIC [5] | MIC [12] | MBC [13] | MIC [14] | MIC [16] | MIC [17] | MIC, CaCl2 [19]
5.88 µM: GM, Gram-negative bacteria [7]
16 µM: MBC [5] | MBC [12] | MBC [14] | MBC [16] | MBC [17] | MIC [18] | MIC, MgCl2 [19] | MIC, KCl [19] | MIC, NaCl [19]
2 µM: MIC [1] | MIC [2] | MBC [6] | MIC [9] | MIC [10] | MIC, FeCl3 [11] | MIC, CaCl2 [11] | MIC, Control [11] | MIC, NH4Cl [19]
21.77: TI, Gram-negative bacteria [7]
1 µM: MIC [6] | MIC, NH4Cl [11] | MIC, ZnCl2 [11] | MIC, MgCl2 [11] | MIC, KCl [11] | MIC, NaCl [11]
4 µM: MBC [1] | MBC [2] | MIC [3] | MIC [4] | MBC [9] | MBC [10] | MIC [13] | MIC, FeCl3 [19] | MIC, ZnCl2 [19] | MIC, Control [19]
